Results as given in publication PMC8722715 (Frontiers in Cell and Developmental Biology, 2021).

Tests used:
[1] = target: T1, hNaV1.7 channel (Homo sapiens, UniProt Q15858); test: Automated patch-clamp block of hNaV1.7 peak Na+ current in CHO cells; type: cell-based; details: for IC50: CHO cells stably expressing hNaV1.7, SyncroPatch 384 PE whole-cell, holding -100 mV, -10 mV test pulse 50 ms every 5 s, room temperature 18-22°C, 0.3% BSA, steady state or end of 15-min application, mean, S.E.M. and n cells; for hNaV1.7/hNaV1.6 selectivity ratio: inverse ratio of the mean IC50 values on hNaV1.7 (CHO) and hNaV1.6 (HEK-293) of Table 1; for hNaV1.7 IC50 versus WT: ratio of analogue mean IC50 to HwTx-IV WT mean IC50 on hNaV1.7
T1 construct: expressed in transfected cells
Experimental: (§1) CHO cells stably expressing the hNaV1.7 channel subtype were cultured in Dulbecco’s Modified Eagle’s Medium F-12 (DMEM/F12) supplemented with 10% fetal bovine serum, 2 mM glutamine, 200 μg/ml hygromycine B, 10 U/ml penicillin and 10 μg/ml streptomycin (Gibco, Grand Island, NY). HEK-293 cells stably expressing the hNaV1.6 channel subtype were cultured in Dulbecco’s Modified Eagle’s Medium (DMEM) supplemented with 10% fetal calf serum, 1 mM pyruvic acid, 4.5 g/L glucose, 2 mM glutamine, 800 μg/ml G418, 10 U/ml penicillin and 10 μg/ml streptomycin (Gibco, Grand Island, NY). All cell lines were incubated at 37°C in a 5% CO2 atmosphere. For electrophysiological recordings, cells were detached with trypsin, and floating single cells were diluted (∼300,000 cells/ml) in an extracellular solution containing (in mM): 140 NaCl, 4 KCl, 2 CaCl2, 1 MgCl2, 5 glucose and 10 HEPES (pH 7.4, osmolarity 298 mOsm), that was used throughout the experiments.
HwTx-IV analogues were investigated on CHO cells expressing hNav1.7 channel and HEK-293 cells expressing hNaV1.6 channel using the automated patch-clamp system from Nanion (SyncroPatch 384 PE; München, Germany). Chips with single-hole and high-resistance (∼6–7 MΩ) were used for both cell lines. Voltage pulses and whole-cell recordings were achieved using the PatchControl384 v1.5.2 software (Nanion) and the Biomek v1.0 interface (Beckman Coulter). Prior to recordings, dissociated cells were shaken at 200 RPM in a cell hotel reservoir at 10°C. After cell catching, sealing, whole-cell formation, liquid application, recording, and data acquisition were all performed sequentially and automatically. The intracellular solution contained (in mM): 110 CsF, 10 CsCl, 10 NaCl, 1 MgCl2, 1 CaCl2, 10 EGTA and 10 HEPES (pH 7.2, osmolarity 280 mOsm), and the extracellular solution was as described above. Whole-cell experiments were done at −100 mV holding potential and at room temperature (18–22°C), while currents triggered at either −10 or 0 mV test potential were sampled at 20 kHz. Stimulation frequency was set at 0.2 Hz. Each HwTx-IV analogue was prepared at various concentrations in the extracellular solution, itself supplemented with 0.3% of bovine serum albumin (BSA), also added in the control solution. […] Compound solutions were diluted 3 times in the patch-clamp recording well by adding 30–60 μl external solution, to reach the final reported concentration and the test volume of 90 μl. For establishing dose-response curves, the compounds were tested at a test potential of either −10 or 0 mV for 50 ms with a pulse every 5 s. Percentages of current inhibition were measured at steady-state of blockage or at the end of a 15-min application time.

[2] = target: T2, hNaV1.6 channel (Homo sapiens, UniProt Q9UQD0); test: Automated patch-clamp block of hNaV1.6 peak Na+ current in HEK-293 cells; type: cell-based; details: for IC50: HEK-293 cells stably expressing hNaV1.6, SyncroPatch 384 PE whole-cell, holding -100 mV, 0 mV test pulse 50 ms every 5 s, room temperature 18-22°C, 0.3% BSA, steady state or end of 15-min application, mean, S.E.M. and n cells; for hNaV1.6 IC50 versus WT: ratio of analogue mean IC50 to HwTx-IV WT mean IC50 on hNaV1.6
T2 construct: expressed in transfected cells
Experimental: as §1
HwTx-IV analogues were investigated on CHO cells expressing hNav1.7 channel and HEK-293 cells expressing hNaV1.6 channel using the automated patch-clamp system from Nanion (SyncroPatch 384 PE; München, Germany). Chips with single-hole and high-resistance (∼6–7 MΩ) were used for both cell lines. Voltage pulses and whole-cell recordings were achieved using the PatchControl384 v1.5.2 software (Nanion) and the Biomek v1.0 interface (Beckman Coulter). Prior to recordings, dissociated cells were shaken at 200 RPM in a cell hotel reservoir at 10°C. After cell catching, sealing, whole-cell formation, liquid application, recording, and data acquisition were all performed sequentially and automatically. The intracellular solution contained (in mM): 110 CsF, 10 CsCl, 10 NaCl, 1 MgCl2, 1 CaCl2, 10 EGTA and 10 HEPES (pH 7.2, osmolarity 280 mOsm), and the extracellular solution was as described above. Whole-cell experiments were done at −100 mV holding potential and at room temperature (18–22°C), while currents triggered at either −10 or 0 mV test potential were sampled at 20 kHz. Stimulation frequency was set at 0.2 Hz. Each HwTx-IV analogue was prepared at various concentrations in the extracellular solution, itself supplemented with 0.3% of bovine serum albumin (BSA), also added in the control solution. The peptides were distributed in 384-well microplates according to the number of compounds to be tested (generally four), the concentration range defined from the IC50 of wild-type HwTx-IV, and the number of cells desired for each experimental condition. Compound solutions were diluted 3 times in the patch-clamp recording well by adding 30–60 μl external solution, to reach the final reported concentration and the test volume of 90 μl. For establishing dose-response curves, the compounds were tested at a test potential of either −10 or 0 mV for 50 ms with a pulse every 5 s. Percentages of current inhibition were measured at steady-state of blockage or at the end of a 15-min application time.

T1 sequence (Q15858 whole entry): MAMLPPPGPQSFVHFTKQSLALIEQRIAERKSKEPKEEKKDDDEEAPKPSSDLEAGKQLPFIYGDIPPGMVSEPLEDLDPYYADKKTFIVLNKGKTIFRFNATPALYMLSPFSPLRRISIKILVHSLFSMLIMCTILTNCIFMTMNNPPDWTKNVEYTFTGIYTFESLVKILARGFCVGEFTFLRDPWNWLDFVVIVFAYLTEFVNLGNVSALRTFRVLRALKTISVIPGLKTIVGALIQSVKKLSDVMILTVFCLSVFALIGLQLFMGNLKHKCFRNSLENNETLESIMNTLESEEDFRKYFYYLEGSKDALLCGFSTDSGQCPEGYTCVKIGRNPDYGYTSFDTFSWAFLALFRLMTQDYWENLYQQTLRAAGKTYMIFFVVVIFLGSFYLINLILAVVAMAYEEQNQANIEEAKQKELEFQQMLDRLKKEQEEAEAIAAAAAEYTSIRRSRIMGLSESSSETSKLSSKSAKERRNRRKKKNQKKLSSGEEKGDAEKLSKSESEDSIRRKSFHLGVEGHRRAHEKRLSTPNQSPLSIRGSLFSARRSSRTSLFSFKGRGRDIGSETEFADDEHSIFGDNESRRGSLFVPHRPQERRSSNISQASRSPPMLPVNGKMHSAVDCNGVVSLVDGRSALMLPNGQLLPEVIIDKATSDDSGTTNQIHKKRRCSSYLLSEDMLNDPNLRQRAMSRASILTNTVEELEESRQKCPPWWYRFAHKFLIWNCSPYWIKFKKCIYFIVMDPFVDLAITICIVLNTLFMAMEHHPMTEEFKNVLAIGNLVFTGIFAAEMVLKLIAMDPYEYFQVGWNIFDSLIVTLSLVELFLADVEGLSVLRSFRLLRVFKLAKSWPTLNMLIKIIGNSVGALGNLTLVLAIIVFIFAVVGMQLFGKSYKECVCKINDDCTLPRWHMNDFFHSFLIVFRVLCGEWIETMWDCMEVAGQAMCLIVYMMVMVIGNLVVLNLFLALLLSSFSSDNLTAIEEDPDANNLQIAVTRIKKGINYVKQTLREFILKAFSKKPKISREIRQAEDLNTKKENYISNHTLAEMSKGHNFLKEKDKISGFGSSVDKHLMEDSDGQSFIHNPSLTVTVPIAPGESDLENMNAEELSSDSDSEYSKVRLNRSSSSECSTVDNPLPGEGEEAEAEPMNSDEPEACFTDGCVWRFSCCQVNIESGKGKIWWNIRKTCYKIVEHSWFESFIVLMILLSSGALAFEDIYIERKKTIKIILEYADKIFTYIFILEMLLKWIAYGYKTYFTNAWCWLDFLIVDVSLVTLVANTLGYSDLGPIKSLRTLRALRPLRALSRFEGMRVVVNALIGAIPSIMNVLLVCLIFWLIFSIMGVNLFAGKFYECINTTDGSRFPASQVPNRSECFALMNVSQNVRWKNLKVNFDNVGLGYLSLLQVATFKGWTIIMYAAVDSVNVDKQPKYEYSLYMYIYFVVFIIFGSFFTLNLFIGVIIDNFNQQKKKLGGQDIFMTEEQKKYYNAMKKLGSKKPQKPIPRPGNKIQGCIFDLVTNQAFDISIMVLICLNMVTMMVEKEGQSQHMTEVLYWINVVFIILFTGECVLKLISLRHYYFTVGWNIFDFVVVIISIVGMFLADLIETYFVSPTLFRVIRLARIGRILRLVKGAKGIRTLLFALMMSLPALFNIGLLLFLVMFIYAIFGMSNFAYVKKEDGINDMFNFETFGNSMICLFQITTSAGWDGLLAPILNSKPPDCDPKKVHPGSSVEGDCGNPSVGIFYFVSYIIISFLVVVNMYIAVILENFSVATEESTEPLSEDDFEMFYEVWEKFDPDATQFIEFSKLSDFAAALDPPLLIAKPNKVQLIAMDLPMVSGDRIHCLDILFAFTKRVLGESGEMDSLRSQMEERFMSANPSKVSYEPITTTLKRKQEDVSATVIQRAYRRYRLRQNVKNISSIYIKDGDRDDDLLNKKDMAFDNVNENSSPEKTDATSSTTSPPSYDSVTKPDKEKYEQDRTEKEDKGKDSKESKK
T2 sequence (Q9UQD0 whole entry): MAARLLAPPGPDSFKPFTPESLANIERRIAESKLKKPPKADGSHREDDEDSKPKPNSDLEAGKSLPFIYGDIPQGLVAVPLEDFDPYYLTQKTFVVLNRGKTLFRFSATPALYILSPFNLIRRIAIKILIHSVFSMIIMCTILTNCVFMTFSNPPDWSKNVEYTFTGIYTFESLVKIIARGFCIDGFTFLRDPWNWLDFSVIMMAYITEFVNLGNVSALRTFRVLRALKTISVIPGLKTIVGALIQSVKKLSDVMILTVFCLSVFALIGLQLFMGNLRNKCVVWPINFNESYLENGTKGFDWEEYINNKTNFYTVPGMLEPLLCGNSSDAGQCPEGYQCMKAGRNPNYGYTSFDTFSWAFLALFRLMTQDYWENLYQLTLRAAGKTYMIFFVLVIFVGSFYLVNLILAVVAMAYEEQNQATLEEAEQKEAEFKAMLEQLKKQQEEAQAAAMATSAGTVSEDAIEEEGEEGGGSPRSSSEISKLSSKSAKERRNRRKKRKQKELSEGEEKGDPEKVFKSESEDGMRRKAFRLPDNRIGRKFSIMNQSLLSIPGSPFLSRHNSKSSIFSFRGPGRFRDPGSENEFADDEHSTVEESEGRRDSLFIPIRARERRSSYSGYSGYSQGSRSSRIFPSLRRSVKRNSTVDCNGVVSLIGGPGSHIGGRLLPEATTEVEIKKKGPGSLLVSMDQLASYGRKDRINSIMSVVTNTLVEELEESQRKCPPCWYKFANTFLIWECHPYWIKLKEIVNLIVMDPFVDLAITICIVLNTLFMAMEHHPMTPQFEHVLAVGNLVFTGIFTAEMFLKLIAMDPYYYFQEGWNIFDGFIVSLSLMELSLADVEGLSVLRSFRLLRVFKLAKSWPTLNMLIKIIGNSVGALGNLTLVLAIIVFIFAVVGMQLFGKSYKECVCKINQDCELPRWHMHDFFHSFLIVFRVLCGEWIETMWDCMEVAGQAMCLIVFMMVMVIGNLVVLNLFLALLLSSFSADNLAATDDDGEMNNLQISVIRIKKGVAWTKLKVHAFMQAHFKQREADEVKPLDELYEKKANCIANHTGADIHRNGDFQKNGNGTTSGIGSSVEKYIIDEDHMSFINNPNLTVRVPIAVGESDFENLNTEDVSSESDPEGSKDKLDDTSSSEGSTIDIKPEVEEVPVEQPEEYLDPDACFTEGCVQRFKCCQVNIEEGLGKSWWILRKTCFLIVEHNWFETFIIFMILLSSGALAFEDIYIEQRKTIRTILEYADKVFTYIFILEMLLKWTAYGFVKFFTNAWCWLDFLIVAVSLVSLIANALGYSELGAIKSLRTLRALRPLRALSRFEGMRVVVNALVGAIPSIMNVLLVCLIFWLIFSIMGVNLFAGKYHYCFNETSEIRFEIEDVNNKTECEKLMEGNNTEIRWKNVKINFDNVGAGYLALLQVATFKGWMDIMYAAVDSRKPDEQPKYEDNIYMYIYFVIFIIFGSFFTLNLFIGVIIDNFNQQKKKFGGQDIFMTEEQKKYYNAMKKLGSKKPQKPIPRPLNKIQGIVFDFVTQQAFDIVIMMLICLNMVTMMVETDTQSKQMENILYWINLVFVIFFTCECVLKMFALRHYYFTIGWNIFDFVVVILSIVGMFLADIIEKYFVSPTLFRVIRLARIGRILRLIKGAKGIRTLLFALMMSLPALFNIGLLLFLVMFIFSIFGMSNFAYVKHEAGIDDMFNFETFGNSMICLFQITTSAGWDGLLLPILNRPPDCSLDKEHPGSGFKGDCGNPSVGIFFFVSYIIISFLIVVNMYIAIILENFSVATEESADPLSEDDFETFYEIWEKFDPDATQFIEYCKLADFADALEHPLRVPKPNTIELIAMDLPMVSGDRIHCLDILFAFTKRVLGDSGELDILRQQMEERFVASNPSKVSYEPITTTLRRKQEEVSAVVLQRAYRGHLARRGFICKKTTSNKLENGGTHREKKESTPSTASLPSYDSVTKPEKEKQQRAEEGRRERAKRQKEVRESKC

| SMILES | IC50 [1] [nM] | hNaV1.7/hNaV1.6 selectivity ratio [1] | hNaV1.7 IC50 versus WT [1] | IC50 [2] [nM] | hNaV1.6 IC50 versus WT [2] |
| --- | --- | --- | --- | --- | --- |
| CC[C@H](C)[C@H](NC(=O)[C@H](CCC(N)=O)NC(=O)[C@H](Cc1ccc(O)cc1)NC(=O)[C@H](CCCCN)NC(=O)[C@@H]1CSSC[C@@H]2NC(=O)[C@H](CCC(N)=O)NC(=O)[C@H](CC(=O)O)NC(=O)[C@H](CC(N)=O)NC(=O)[C@H](CO)NC(=O)[C@@H]3CCCN3C(=O)[C@H](CC(N)=O)NC(=O)[C@@H]3CSSC[C@H](NC(=O)[C@H](C(C)C)NC(=O)[C@H](CC(C)C)NC(=O)[C@H](CCCCN)NC(=O)[C@H](CO)NC(=O)[C@H](CO)NC(=O)[C@H](CCCCN)NC(=O)[C@H](CSSC[C@H](NC(=O)[C@@H](N)CCC(=O)O)C(=O)N[C@@H](CC(C)C)C(=O)N[C@@H](CCCCN)C(=O)N[C@@H]([C@@H](C)CC)C(=O)N[C@@H](Cc4ccccc4)C(=O)N[C@@H](CCCCN)C(=O)N[C@@H](C)C(=O)N3)NC2=O)C(=O)N[C@@H](CO)C(=O)N[C@@H](CCC(N)=O)C(=O)N[C@@H](CCCCN)C(=O)N[C@@H]([C@@H](C)O)C(=O)N[C@@H](CCCNC(=N)N)C(=O)N[C@@H](Cc2c[nH]c3ccccc23)C(=O)N1)C(N)=O [HwTx-IV E^4K/R ^26Q] | 3.6 | less than 2 | 0.36 | 3.4 | 0.02 |
| CC[C@H](C)[C@H](NC(=O)[C@H](CCC(N)=O)NC(=O)[C@H](Cc1ccc(O)cc1)NC(=O)[C@H](CC(N)=O)NC(=O)[C@@H]1CSSC[C@@H]2NC(=O)[C@H](CCC(N)=O)NC(=O)[C@H](CC(=O)O)NC(=O)[C@H](CC(N)=O)NC(=O)[C@H](CO)NC(=O)[C@@H]3CCCN3C(=O)[C@H](CC(N)=O)NC(=O)[C@@H]3CSSC[C@H](NC(=O)[C@H](C(C)C)NC(=O)[C@H](CC(C)C)NC(=O)[C@H](CCCCN)NC(=O)[C@H](CO)NC(=O)[C@H](CO)NC(=O)[C@H](CCCCN)NC(=O)[C@H](CSSC[C@H](NC(=O)[C@@H](N)CCC(=O)O)C(=O)N[C@@H](CC(C)C)C(=O)N[C@@H](CCCNC(=N)N)C(=O)N[C@@H]([C@@H](C)CC)C(=O)N[C@@H](Cc4ccccc4)C(=O)N[C@@H](CCCCN)C(=O)N[C@@H](C)C(=O)N3)NC2=O)C(=O)N[C@@H](CO)C(=O)N[C@@H](CCCNC(=N)N)C(=O)N[C@@H](CCCCN)C(=O)N[C@@H]([C@@H](C)O)C(=O)N[C@@H](CCCNC(=N)N)C(=O)N[C@@H](Cc2c[nH]c3ccccc23)C(=O)N1)C(N)=O [HwTx-IV E^4R/K^32N] | > 1000 | – | >101 | > 333 | >1.5 |
| CC[C@H](C)[C@H](NC(=O)[C@H](CCC(N)=O)NC(=O)[C@H](Cc1ccc(O)cc1)NC(=O)[C@H](CCCCN)NC(=O)[C@@H]1CSSC[C@@H]2NC(=O)[C@H](CCC(N)=O)NC(=O)[C@H](CC(=O)O)NC(=O)[C@H](CC(N)=O)NC(=O)[C@H](CO)NC(=O)[C@@H]3CCCN3C(=O)[C@H](CC(N)=O)NC(=O)[C@@H]3CSSC[C@H](NC(=O)[C@H](C(C)C)NC(=O)[C@H](CC(C)C)NC(=O)[C@H](CCCCN)NC(=O)[C@H](CO)NC(=O)[C@H](CO)NC(=O)[C@H](C)NC(=O)[C@H](CSSC[C@H](NC(=O)[C@@H](N)CCC(=O)O)C(=O)N[C@@H](CC(C)C)C(=O)N[C@@H](CCC(=O)O)C(=O)N[C@@H]([C@@H](C)CC)C(=O)N[C@@H](Cc4ccccc4)C(=O)N[C@@H](CCCCN)C(=O)N[C@@H](C)C(=O)N3)NC2=O)C(=O)N[C@@H](CO)C(=O)N[C@@H](CCCNC(=N)N)C(=O)N[C@@H](CCCCN)C(=O)N[C@@H]([C@@H](C)O)C(=O)N[C@@H](CCCNC(=N)N)C(=O)N[C@@H](Cc2c[nH]c3ccccc23)C(=O)N1)C(N)=O [HwTx-IV K^18A] | 6.4 | above 46 | 0.65 | 416 | 1.84 |
| CC[C@H](C)[C@H](NC(=O)[C@H](CCC(N)=O)NC(=O)[C@H](Cc1ccc(O)cc1)NC(=O)[C@H](CC(N)=O)NC(=O)[C@@H]1CSSC[C@@H]2NC(=O)[C@H](CCC(N)=O)NC(=O)[C@H](CC(=O)O)NC(=O)[C@H](CC(N)=O)NC(=O)[C@H](CO)NC(=O)[C@@H]3CCCN3C(=O)[C@H](CC(N)=O)NC(=O)[C@@H]3CSSC[C@H](NC(=O)[C@H](C(C)C)NC(=O)[C@H](CC(C)C)NC(=O)[C@H](CCCCN)NC(=O)[C@H](CO)NC(=O)[C@H](CO)NC(=O)[C@H](CCCCN)NC(=O)[C@H](CSSC[C@H](NC(=O)[C@@H](N)CCC(=O)O)C(=O)N[C@@H](CC(C)C)C(=O)N[C@@H](CCC(=O)O)C(=O)N[C@@H]([C@@H](C)CC)C(=O)N[C@@H](Cc4ccccc4)C(=O)N[C@@H](CCCCN)C(=O)N[C@@H](C)C(=O)N3)NC2=O)C(=O)N[C@@H](CO)C(=O)N[C@@H](CCCNC(=N)N)C(=O)N[C@@H](CCCCN)C(=O)N[C@@H]([C@@H](C)O)C(=O)N[C@@H](CCCNC(=N)N)C(=O)N[C@@H](Cc2c[nH]c3ccccc23)C(=O)N1)C(N)=O [HwTx-IV K^32N] | 5750 | – | 581 | > 1000 | >4.4 |
| CC[C@H](C)[C@H](NC(=O)[C@H](CCC(N)=O)NC(=O)[C@H](Cc1ccc(O)cc1)NC(=O)[C@H](CCCCN)NC(=O)[C@@H]1CSSC[C@@H]2NC(=O)[C@H](CCC(N)=O)NC(=O)[C@H](CC(=O)O)NC(=O)[C@H](CC(N)=O)NC(=O)[C@H](CO)NC(=O)[C@@H]3CCCN3C(=O)[C@H](CC(N)=O)NC(=O)[C@@H]3CSSC[C@H](NC(=O)[C@H](C(C)C)NC(=O)[C@H](CC(C)C)NC(=O)[C@H](CCCCN)NC(=O)[C@H](CO)NC(=O)[C@H](CO)NC(=O)[C@H](CCCCN)NC(=O)[C@H](CSSC[C@H](NC(=O)[C@@H](N)CCC(=O)O)C(=O)N[C@@H](CC(C)C)C(=O)N[C@@H](CCC(=O)O)C(=O)N[C@@H]([C@@H](C)CC)C(=O)N[C@@H](Cc4ccccc4)C(=O)N[C@@H](CCCCN)C(=O)N[C@@H](C)C(=O)N3)NC2=O)C(=O)N[C@@H](CO)C(=O)N[C@@H](CCCNC(=N)N)C(=O)N[C@@H](CCCCN)C(=O)N[C@@H]([C@@H](C)O)C(=O)N[C@@H](CCCNC(=N)N)C(=O)N[C@@H](Cc2c[nH]c3ccccc23)C(=O)N1)C(=O)N[C@@H](CCCCN)C(=O)O [HwTx-IV K^36/CterCOOH] | 29 | above 46 | 2.93 | 1330 | 5.89 |
